{"source": "patent US20220193209A1", "about": "“COMPOSITIONS AND METHODS FOR REACTIVATING LATENT IMMUNODEFICIENCY VIRUS AND/OR TREATING IMMUNODEFICIENCY VIRUS INFECTION” (The J. David Gladstone institutes, a testamentary trust …, priority 2019, published 2022)", "key": {"Smyd2": {"biological_target": "Smyd2 (Homo sapiens, UniProt Q9NRG4)", "sequence (Q9NRG4 whole entry, species assumed)": "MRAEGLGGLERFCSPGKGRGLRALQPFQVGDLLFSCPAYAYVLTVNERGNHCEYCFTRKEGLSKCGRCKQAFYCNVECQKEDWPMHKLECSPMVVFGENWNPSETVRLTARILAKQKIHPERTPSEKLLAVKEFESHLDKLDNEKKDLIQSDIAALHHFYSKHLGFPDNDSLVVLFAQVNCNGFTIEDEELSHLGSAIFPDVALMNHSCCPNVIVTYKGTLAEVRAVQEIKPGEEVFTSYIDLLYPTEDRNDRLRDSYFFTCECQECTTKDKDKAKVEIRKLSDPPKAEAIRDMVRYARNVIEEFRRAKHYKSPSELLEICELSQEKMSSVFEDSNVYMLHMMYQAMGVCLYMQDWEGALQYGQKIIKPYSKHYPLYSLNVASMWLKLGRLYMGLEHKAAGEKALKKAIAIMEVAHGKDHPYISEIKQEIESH", "conditions": "SMYD2, substrate competitive; cited from earlier work"}, "[1]": {"tested_on": "latent HIV-1 provirus in J-Lat cells", "assay": "HIV-GFP reactivation in J-Lat cell lines (RT-qPCR, FACS)", "type": "cell-based", "conditions": "for HIV-1 reactivation (HIV-GFP): ER stress inducers, 24, 48 and 72 h; for effect on TNFα-mediated HIV reactivation: with 10 ng/mL TNFα (24 h); for effect on AS1842856-induced HIV reactivation: with 1000 nM AS1842856 (72 h)", "description": "Total RNA from samples was extracted using the Direct-zol RNA kit (R2060; Zymogen). cDNA was generated using 500 ng for CD4^+ T cells or 1000 ng of total RNA for J-Lats with Superscript III Reverse transcription (18080-044; ThermoFisher) and oligo(dT) (18418-012; ThermoFisher). Quantitative RT-PCR was carried out using Maxima SYBR Green qPCR Master Mix (Thermo Scientific) on SDS 2.4 software (Applied Biosystems) in a total volume of 12 μL. The SYBR green qPCR reactions contained 5 μl of 2× Maxima SYBR green/Rox qPCR Master Mix (K0221; ThermoFisher), 5 μl of diluted cDNA, and 1 nmol of both forward and reverse primers. The reactions were run using the following conditions: 50° C. for 2 min and 95° C. for 10 min, followed by 40 cycles of 95° C. for 5 s and 62° C. for 30 s. See Table 1 below for a qRT-PCR primer list. […] Dissociation curve analysis was performed after the end of the PCR to confirm the presence of a single and specific product. All qPCRs were independently repeated at least three times, averaged and compared using standard deviation (±SD).\nThe J-Lat clonal cell lines are Jurkat cells that contain a stably integrated, latent HIV-1 (HXB) Δenv provirus with a GFP reporter gene in place of the nef gene (Jordan, A. et al. EMBO J. 22, 1868-1877 (2003)). In this system, reactivation from established latency can be monitored through GFP expression.\nHIV-GFP mRNA reactivation was assessed by RT-qPCR and normalized to RPL13A mRNA. Data represent average SD of three independent experiments. p-value relative to the control at each time point. FIG. 3, Panel B, depicts cell viability assessed by flow cytometry at 72 h of the same experiment as in A. Cell viability was measured by gating on both the live population at the forward scatter (FSC) and side scatter (SSC) plot and then the viable cells after staining with the viability dye. […] HIV-GFP reactivation (bars) and cell viability (dots) were analyzed by FACS. HIV-GFP reactivation is reported as a percentage of GFP-expressing cells (% GFP+ cells). Data represent average f SD of at least three independent experiments. FIG. 3, Panel D, depicts the same experiments as in FIG. 3, Panel C, but performed in different J-Lat cell lines 5A8, 6.3, 11.1 and 15.4. Data represent average f SD of at least three independent experiments. 10 ng/mL TNFα was used as control. […] Calculation of synergy for drug combinations using the Bliss independence model applied to the HIV-GFP reactivation measured as a percentage of GFP-expressing cells (% GFP+ cells).\nChromatin was prepared from J-Lat A2 and 5A8 cells, in which the LTR was stimulated by 1000 nM AS1842856 treatment, TNFα or which were left untreated/DMSO. […] HIV-GFP reactivation was analyzed by FACS and relativized to the control condition. […] Data represent average SD of 3-6 independent experiments. […] HIV-GFP reactivation was analyzed by FACS. […] HIV-GFP reactivation and cell viability were analyzed by FACS. Data were mean±SD of three independent experiments."}, "J-Lat cells": {"tested_on": "J-Lat cells", "assay": "Cell viability of J-Lat cells by flow cytometry", "type": "cell-based", "conditions": "J-Lat", "description": "FIG. 3, Panel A, depicts results of treatment of a J-Lat cell line 5A8 with increasing concentrations (1-10000 nM) of AS1842856 for 24, 48 and 72 h. HIV-GFP mRNA reactivation was assessed by RT-qPCR and normalized to RPL13A mRNA. Data represent average SD of three independent experiments. p-value relative to the control at each time point. FIG. 3, Panel B, depicts cell viability assessed by flow cytometry at 72 h of the same experiment as in A. Cell viability was measured by gating on both the live population at the forward scatter (FSC) and side scatter (SSC) plot and then the viable cells after staining with the viability dye. FIG. 3, Panel C, depicts results of treatment of J-Lat cell lines A2 and A72 with increasing concentrations of AS1842856 for 24, 48 and 72 h. HIV-GFP reactivation (bars) and cell viability (dots) were analyzed by FACS. HIV-GFP reactivation is reported as a percentage of GFP-expressing cells (% GFP+ cells). Data represent average f SD of at least three independent experiments. FIG. 3, Panel D, depicts the same experiments as in FIG. 3, Panel C, but performed in different J-Lat cell lines 5A8, 6.3, 11.1 and 15.4. Data represent average f SD of at least three independent experiments. 10 ng/mL TNFα was used as control. FIG. 3 Panel E depicts results of treatment of J-Lat cell lines 5A8, 6.3, 11.1 and 15.4 for 72 h with increasing concentrations of both AS1842856 (Y-axis) and TNFα (X-axis) alone or in combination and analyzed by FACS. Calculation of synergy for drug combinations using the Bliss independence model applied to the HIV-GFP reactivation measured as a percentage of GFP-expressing cells (% GFP+ cells).\nFIG. 10, Panels A-F depict results of a J-Lat cell line 5A8 treated with different concentrations of inhibitors. FIG. 10, Panel A, depicts results for a J-Lat cell line A58 that was treated with increasing concentrations of A-92 (GCN2 inhibitor) in combination with 1000 nM AS1842856 (72 h) or 10 ng/mL TNFα (24 h). HIV-GFP reactivation was analyzed by FACS and relativized to the control condition. Histogram plots of percent live cells for each drug treatment are shown. FIG. 10, Panel B, depicts the same experiment as in FIG. 10, Panel A, but cells were treated with increasing concentrations of PKR inhibitor (PKRi). Histogram plots representing viability are also shown. Data are represented by mean±SD of three different […]. […] FIG. 10, Panel D, depicts a J-Lat cell line A58 that was treated with increasing concentrations of Ionomycin (0.01, 0.1, 0.5, 1 μM) for 24, 48 and 72 hr. HIV-GFP reactivation and cell viability were analyzed by FACS. FIG. 10, Panel E, depicts a J-Lat cell line 5A8 that was treated for 72 h with increasing concentrations of both Fenretinide (Y-axis) and Ionomycin (X-axis) alone or in combination and analyzed by FACS. HIV-GFP reactivation is reported as a percentage of GFP-expressing cells (% GFP+ cells). FIG. 10, Panel F, depicts a J-Lat cell line 5A8 that was also treated for 72 h with increasing concentrations of both Thapsigargin (Y-axis) and Cyclosporin A (X-axis) alone or in combination and analyzed by FACS. HIV-GFP reactivation is again reported as a percentage of GFP-expressing cells (% GFP+ cells)."}, "HIV LTR": {"tested_on": "HIV LTR", "assay": "Chromatin immunoprecipitation (ChIP) at the HIV LTR in J-Lat cells", "type": "cell-based, HIV-1", "description": "J-Lat A2 and A72 cells were treated with TNFα (10 ng/ml) for 18 h. Cells were fixed with 1% formaldehyde (v/v) in fixation buffer (1 mM EDTA, 0.5 mM EGTA, 50 mM Hepes, pH 8.0, 100 mM NaCl), and fixation was stopped after 10 min by addition of glycine to 125 mM. The cell membrane was lysed for 15 min on ice (5 mM Pipes, pH 8.0, 85 mM KCl, 0.5% NP40, protease inhibitors). After washing with nuclear swell buffer (25 mM HEPES, pH 7.5, 4 mM KCl, 1 Mm DTT, 0.5% NP-40, 0.5 mM PMSF) and micrococcal nuclease (MNase) digestion buffer (20 mM Tris pH 7.5, 2.5 mM CaCl2), 5 mM NaCl, 1 mM DTT, 0.5% NP-40), the pellet was resuspended in MNase buffer (15 mM Tris-HCl, pH 7.5, 5 mM MgCl2, 1 mM CaCl2), and 25 mM NaCl). Subsequently, samples were incubated with MNase (New England Biolabs) for 10 min at RT. The reaction was quenched with 0.5 M EDTA and incubated on ice for 5 min. Cells were lysed (1% SDS, 10 mM EDTA, 50 mM Tris-HCl, pH 8.1, protease inhibitors), and chromatin DNA was sheared to 200-1000-bp average size through sonication (Ultrasonic Processor CP-130, Cole Parmer). Cellular debris was pelleted, and the supernatant was recovered. Protein A/G Sepharose beads were blocked with single-stranded salmon sperm DNA and BSA, washed and resuspended in immunoprecipitation buffer. Blocked protein A/G Sepharose beads were added to the digested chromatin fractions and rotated at 4° C. for 2 h to preclear chromatin. Lysates were incubated overnight at 4° C. with 5 μg of FOXO1, RelA, histone H4, H4K20me1, H4K20me2, H4K20me3 antibodies, or IgG control. After incubation with protein A/G agarose beads for 2 h and washing three times with low salt buffer (0.1% SDS, 1% Triton X-100, 2 mM EDTA, 20 mM Tris-HCl, pH 8.1, 150 mM NaCl), one time with high salt buffer (0.1% SDS, 1% Triton X-100, 2 mM EDTA, 20 mM Tris-HCl, pH 8.1, 500 mM NaCl) and twice with TE-buffer (1 mM EDTA, 10 mM Tris-HCl, pH 8.1), chromatin was eluted and recovered with Agencourt AMPure XP beads (Beckman Coulter). Bound chromatin and input DNA were treated with RNase H (New England Biolabs) and Proteinase K (Sigma-Aldrich) at 37° C. for 30 min. Immunoprecipitated chromatin was quantified by real-time PCR using the Maxima SYBR Green qPCR Master Mix (Thermo Scientific) and the ABI 7700 Sequence Detection System (Applied Biosystems). The SDS 2.4 software (Applied Biosystems) was used for analysis. The specificity of each PCR reaction was confirmed by melting curve analysis using the Dissociation Curve software (Applied Biosystems). All chromatin immunoprecipitations and qPCRs were repeated at least three times, and representative results were shown.\nBecause ATF4 can be recruited to the HIV LTR (Jiang, G. et al. Downloaded from. MBio 8, 1518-1534 (2018)) and the related human T-cell leukemia virus type 1 (HTLV-1) Reddy, T. et al. Oncogene 14, 2785-2792 (1997)), chromatin immunoprecipitation (ChIP) experiments were performed to test whether ATF4 binds the HIV LTR in response to FOXO1 inhibition. While low levels of ATF4 bound HIV LTR chromatin in untreated J-Lat cells, its recruitment was 3-fold enriched after AS1842856 treatment (FIG. 9, Panel A). […] The nuclear factor of activated T cells (NFAT) can occupy the NF-κB binding sites in the HIV LTR, and is activated through calcium mobilization after T cell activation rather than protein kinase C activation as for NF-κB. […]"}}, "note": "pIC50: −log10 of the molar value.", "data": [{"compound": "N#Cc1cc(C(=O)NCCCN2CCCC2)cc(-c2ccccc2N2CCN(CCc3c[nH]c4ccccc34)CC2)c1", "note": "[AZ391]", "values": [{"measurement": "pIC50", "setting": "Smyd2", "value": 7.21}]}, {"compound": "C[C@H]1CCC/C=C/[C@@H]2C[C@H](O)C[C@H]2[C@H](O)/C=C/C(=O)O1", "note": "[Brefeldin A]", "values": [{"measurement": "HIV-1 reactivation (HIV-GFP)", "setting": "[1]; J-Lat", "value": "HIV-1 reactivation"}, {"measurement": "cellular toxicity", "setting": "J-Lat cells; ER stress inducers", "value": "dose-dependent levels of cellular toxicity"}]}, {"compound": "Cc1cccc(CC(=O)N2CCc3c2ccc(-c2cn(C)c4ncnc(N)c24)c3F)n1", "note": "[PERK inhibitor]", "values": [{"measurement": "effect on TNFα-mediated HIV reactivation", "setting": "[1]; J-Lat", "value": "not affected"}, {"measurement": "suppression of AS1842856-mediated HIV reactivation", "setting": "[1]; J-Lat, with 1000 nM AS1842856", "value": "~50", "unit": "%"}, {"measurement": "effect on AS1842856-induced HIV reactivation", "setting": "[1]; J-Lat", "value": "reduced"}]}, {"compound": "O=C1Nc2ccc3ncsc3c2/C1=C/c1cnc[nH]1", "note": "[PKR inhibitor]", "values": [{"measurement": "effect on TNFα-mediated HIV reactivation", "setting": "[1]; J-Lat", "value": "diminished"}, {"measurement": "effect on AS1842856-induced HIV reactivation", "setting": "[1]; J-Lat", "value": "not"}]}, {"compound": "CC1=C(/C=C/C(C)=C/C=C/C(C)=C/C(=O)Nc2ccc(O)cc2)C(C)(C)CCC1", "note": "[fenretinide]", "values": [{"measurement": "HIV-1 reactivation (HIV-GFP)", "setting": "[1]; J-Lat", "value": "best reactivation"}, {"measurement": "cellular toxicity", "setting": "J-Lat cells; ER stress inducers", "value": "dose-dependent levels of cellular toxicity"}, {"measurement": "cellular toxicity", "setting": "J-Lat cells; fenretinide 0.5 μM, alone or with ionomycin", "value": "nontoxic"}]}, {"compound": "C/C=C(/C)C(=O)O[C@H]1C(C)=C2[C@H]([C@@H]1OC(=O)CCCCCCC)[C@@](C)(OC(C)=O)C[C@H](OC(=O)CCC)[C@@]1(O)[C@H]2OC(=O)[C@@]1(C)O", "note": "[thapsigargin]", "values": [{"measurement": "HIV-1 reactivation (HIV-GFP)", "setting": "[1]; J-Lat", "value": "HIV-1 reactivation"}, {"measurement": "cellular toxicity", "setting": "J-Lat cells; ER stress inducers", "value": "dose-dependent levels of cellular toxicity"}]}, {"compound": "TNFα", "values": [{"measurement": "time of maximal activation", "setting": "[1]; J-Lat 5A8, GFP mRNA", "value": 24, "unit": "h"}, {"measurement": "GFP expression", "setting": "[1]; four J-Lat clonal cell lines, as early as 24 hours", "value": "induced GFP expression"}, {"measurement": "RelA recruitment to the HIV LTR", "setting": "HIV LTR", "value": "significantly enriched"}]}]}
